Results reported in PubChem BioAssay AID248 (DTP/NCI, 2004).
“And” between values parts separate entries of the source, which are not always exact repeats. Identical values can stand only once. Inconclusive results and toxic doses are left out. Rule as the data show it: active = T/C of 150% or more; inactive = T/C below 125%.

Tested on: L1210 leukemia ip in BDF1 mice, survival T/C
Test: NCI In Vivo Anticancer Drug Screen. Data for tumor model L1210 Leukemia (intraperitoneal) in B6D2F1 (BDF1) mice
Conditions: endpoint: mean survival time, higher = longer survival
Method in brief: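 Tumor was transplanted into mice, which were then dosed with test compound or vehicle alone. Survival was recorded for each group, and the treated figure was expressed relative to the control figure.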

[1] = dose: 100.0 mg/kg/injection, schedule: Q01DX009 (ip), vehicle: Klucel (hydroxypropylcellulose) (HPC)
[2] = dose: 200.0 mg/kg/injection, schedule: Q01DX009 (ip), vehicle: Klucel (hydroxypropylcellulose) (HPC)
[3] = dose: 400.0 mg/kg/injection, schedule: Q01DX009 (ip), vehicle: Klucel (hydroxypropylcellulose) (HPC)
[4] = dose: 50.0 mg/kg/injection, schedule: Q01DX009 (ip), vehicle: saline with Tween-80
[5] = dose: 100.0 mg/kg/injection, schedule: Q01DX009 (ip), vehicle: saline with Tween-80
[6] = dose: 200.0 mg/kg/injection, schedule: Q01DX009 (ip), vehicle: saline with Tween-80
[7] = dose: 100.0 mg/kg/injection, schedule: Q04DX003 (ip), vehicle: saline with Tween-80
[8] = dose: 200.0 mg/kg/injection, schedule: Q04DX003 (ip), vehicle: saline with Tween-80
[9] = dose: 400.0 mg/kg/injection, schedule: Q04DX003 (ip), vehicle: saline with Tween-80
[10] = dose: 100.0 mg/kg/injection, schedule: Q04DX003 (ip), vehicle: Klucel (hydroxypropylcellulose) (HPC)
[11] = dose: 200.0 mg/kg/injection, schedule: Q04DX003 (ip), vehicle: Klucel (hydroxypropylcellulose) (HPC)
[12] = dose: 400.0 mg/kg/injection, schedule: Q04DX003 (ip), vehicle: Klucel (hydroxypropylcellulose) (HPC)
[13] = dose: 100.0 mg/kg/injection, schedule: Q04DX002 (ip), vehicle: Klucel (hydroxypropylcellulose) (HPC)
[14] = dose: 200.0 mg/kg/injection, schedule: Q04DX002 (ip), vehicle: Klucel (hydroxypropylcellulose) (HPC)
[15] = dose: 400.0 mg/kg/injection, schedule: Q04DX002 (ip), vehicle: Klucel (hydroxypropylcellulose) (HPC)
[16] = dose: 100.0 mg/kg/injection, schedule: Q01DX001 (ip), vehicle: other
[17] = dose: 200.0 mg/kg/injection, schedule: Q01DX001 (ip), vehicle: other
[18] = dose: 100.0 mg/kg/injection, schedule: Q04DX003 (ip), vehicle: saline
[19] = dose: 200.0 mg/kg/injection, schedule: Q04DX003 (ip), vehicle: saline
[20] = dose: 100.0 mg/kg/injection, schedule: Q01DX001 (ip), vehicle: carboxymethylcellulose (CMC)

Measured: T/C

FC(F)(F)c1cccc(NC(=S)NCc2ccco2)c1
inactive: [1] 90 % of control | [2] 93 % of control | [3] 96 % of control

COC(=O)C1c2ccccc2-c2ccccc21
inactive: [4] 97 % of control | [5] 107 % of control | [6] 96 % of control

c1ccc(N=NC2(c3ccccc3)CCC(c3ccccc3)=NN2c2ccccc2)cc1 (stereo not drawn)
inactive: [7] 100 % of control | [8] 89 % of control | [9] 93 % of control

COc1ccc(NC(=O)/C=C/c2ccc([N+](=O)[O-])cc2)cc1S(=O)(=O)F
inactive: [10] 98 % of control | [11] 107 % of control | [12] 98 % of control

COC(=O)C(C(=O)Oc1ccc([N+](=O)[O-])cc1)c1ccccc1 (stereo not drawn)
inactive: dose: 100.0 mg/kg/injection, schedule: Q01DX001 (ip), vehicle: Klucel (hydroxypropylcellulose) (HPC) 97 % of control | [10] 101 % of control | dose: 200.0 mg/kg/injection, schedule: Q01DX001 (ip), vehicle: Klucel (hydroxypropylcellulose) (HPC) 97 % of control | [2] 102 % of control | [11] 103 % of control | dose: 400.0 mg/kg/injection, schedule: Q01DX001 (ip), vehicle: Klucel (hydroxypropylcellulose) (HPC) 100 % of control | [3] 109 % of control | [12] 101 % of control

CCCCCC(=O)N1CC(C)OC(C)C1 (stereo not drawn)
inactive: [13] 94 % of control | [14] 97 % of control | [15] 87 % of control

Cc1cc(C)c(C)c(OC(=O)Nc2ccc(Cl)cc2C(F)(F)F)c1
inactive: [4] 92 % of control | [5] 103 % of control | [6] 106 % of control

CCc1nc(N)nc(N)c1-c1ccc(N(CCCl)CCCl)cc1
inactive: dose: 13.0 mg/kg/injection, schedule: Q01DX Z (ip), vehicle: methylcellulose (MC) 108 % of control | dose: 20.0 mg/kg/injection, schedule: Q01DX Z (ip), vehicle: methylcellulose (MC) 103 % of control | dose: 30.0 mg/kg/injection, schedule: Q01DX Z (ip), vehicle: methylcellulose (MC) 108 % of control | dose: 45.0 mg/kg/injection, schedule: Q01DX Z (ip), vehicle: methylcellulose (MC) 113 % of control

CN(C)CCOC(=O)c1ccccc1C=O
inactive: [13] 105 % of control | [14] 98 % of control | [15] 102 % of control

COc1ccc2nonc2c1
inactive: [16] 100 % of control | [17] 110 % of control

NC(=O)NOCc1ccc([N+](=O)[O-])cc1
inactive: [18] 98 % of control | [19] 101 % of control | dose: 400.0 mg/kg/injection, schedule: Q04DX003 (ip), vehicle: saline 115 % of control

O=C(N/N=C\c1cc(Br)cc(Br)c1O)N/N=C/c1cc(Br)cc(Br)c1O
inactive: dose: 100.0 mg/kg/injection, schedule: Q04DX002 (ip), vehicle: saline with Tween-80 108 % of control | dose: 200.0 mg/kg/injection, schedule: Q04DX002 (ip), vehicle: saline with Tween-80 95 % of control | dose: 400.0 mg/kg/injection, schedule: Q04DX002 (ip), vehicle: saline with Tween-80 92 % of control

COC(=O)c1ccc([N+](=O)[O-])c(O)c1
inactive: [1] 96 % of control | [10] 96 % of control | [2] 98 % of control | [11] 100 % of control | [3] 88 % of control | [12] 102 % of control

O=c1ncc2[nH]c(I)nc2[nH]1
inactive: [20] 96 % of control

O=[N+]([O-])c1ccc(C#CS(=O)(=O)c2ccccc2)cc1
inactive: dose: 50.0 mg/kg/injection, schedule: Q01DX009 (ip), vehicle: saline 104 % of control | dose: 100.0 mg/kg/injection, schedule: Q01DX009 (ip), vehicle: saline 96 % of control | dose: 200.0 mg/kg/injection, schedule: Q01DX009 (ip), vehicle: saline 96 % of control

O=C(O)c1ccc(F)c(F)c1
inactive: dose: 100.0 mg/kg/injection, schedule: Q04DX002 (ip), vehicle: other 110 % of control | dose: 200.0 mg/kg/injection, schedule: Q04DX002 (ip), vehicle: other 115 % of control | dose: 400.0 mg/kg/injection, schedule: Q04DX002 (ip), vehicle: other 107 % of control

CN(C)C(CCN1CCCCC1)CN1CCCCC1 (stereo not drawn)
inactive: dose: 100.0 mg/kg/injection, schedule: Q01DX001 (ip), vehicle: saline 100 % of control | dose: 200.0 mg/kg/injection, schedule: Q01DX001 (ip), vehicle: saline 96 % of control | dose: 400.0 mg/kg/injection, schedule: Q01DX001 (ip), vehicle: saline 90 % of control

COc1cc(Cl)ccc1NC(=O)Oc1cccc(NC(C)=O)c1
inactive: [1] 100 % of control | [2] 89 % of control | [3] 100 % of control

CC(=[N-])CC(C)=O.CC(=[N-])CC(C)=O.[Ni+2]
inactive: dose: 3.0 mg/kg/injection, schedule: Q01DX009 (ip), vehicle: Klucel (hydroxypropylcellulose) (HPC) 90 % of control | dose: 3.12 mg/kg/injection, schedule: Q01DX001 (ip), vehicle: Klucel (hydroxypropylcellulose) (HPC) 97 % of control | dose: 3.12 mg/kg/injection, schedule: Q04DX003 (ip), vehicle: Klucel (hydroxypropylcellulose) (HPC) 98 % of control | dose: 3.13 mg/kg/injection, schedule: Q01DX009 (ip), vehicle: Klucel (hydroxypropylcellulose) (HPC) 97 % of control | dose: 6.0 mg/kg/injection, schedule: Q01DX009 (ip), vehicle: Klucel (hydroxypropylcellulose) (HPC) 95 % of control | dose: 6.25 mg/kg/injection, schedule: Q01DX001 (ip), vehicle: Klucel (hydroxypropylcellulose) (HPC) 100 % of control | dose: 6.25 mg/kg/injection, schedule: Q01DX009 (ip), vehicle: Klucel (hydroxypropylcellulose) (HPC) 97 % of control | dose: 6.25 mg/kg/injection, schedule: Q04DX003 (ip), vehicle: Klucel (hydroxypropylcellulose) (HPC) 97 % of control and 106 % of control | dose: 12.0 mg/kg/injection, schedule: Q01DX009 (ip), vehicle: Klucel (hydroxypropylcellulose) (HPC) 96 % of control | dose: 12.5 mg/kg/injection, schedule: Q01DX001 (ip), vehicle: Klucel (hydroxypropylcellulose) (HPC) 105 % of control | dose: 12.5 mg/kg/injection, schedule: Q01DX009 (ip), vehicle: Klucel (hydroxypropylcellulose) (HPC) 98 % of control | dose: 12.5 mg/kg/injection, schedule: Q04DX003 (ip), vehicle: Klucel (hydroxypropylcellulose) (HPC) 102 % of control and 103 % of control | dose: 25.0 mg/kg/injection, schedule: Q01DX001 (ip), vehicle: Klucel (hydroxypropylcellulose) (HPC) 100 % of control

Sc1ccccc1.[Pb]
inactive: dose: 25.0 mg/kg/injection, schedule: Q01DX009 (ip), vehicle: Klucel (hydroxypropylcellulose) (HPC) 98 % of control | dose: 50.0 mg/kg/injection, schedule: Q01DX009 (ip), vehicle: Klucel (hydroxypropylcellulose) (HPC) 101 % of control | [1] 92 % of control and 87 % of control

CC(=O)/C=C(/C)O
inactive: [18] 100 % of control | [19] 118 % of control

CC(=O)OC1CCC2(C)C(CCC3C(CCC(=O)O)C(C)(CC(C)C(=O)O)CCC32)C1 (stereo not drawn)
inactive: dose: 100.0 mg/kg/injection, schedule: Q04DX003 (sc), vehicle: steriod suspending solution 116 % of control | dose: 200.0 mg/kg/injection, schedule: Q04DX003 (sc), vehicle: steriod suspending solution 109 % of control | dose: 400.0 mg/kg/injection, schedule: Q04DX003 (sc), vehicle: steriod suspending solution 113 % of control

N=c1ccccn1CC(O)COc1ccccc1 (stereo not drawn)
inactive: [20] 92 % of control

CCCN(CCC)N=Nc1ccccc1C(N)=O
inactive: [16] 107 % of control | [5] 90 % of control | [7] 104 % of control | [17] 102 % of control | [6] 102 % of control | [8] 94 % of control | dose: 400.0 mg/kg/injection, schedule: Q01DX001 (ip), vehicle: other 103 % of control | [9] 98 % of control

Cc1cccc(C)c1NC(=S)N1CCC(CCCC2CCN(C(=S)Nc3c(C)cccc3C)CC2)CC1
inactive: [5] 93 % of control and 98 % of control | [6] 95 % of control and 105 % of control | dose: 400.0 mg/kg/injection, schedule: Q01DX009 (ip), vehicle: saline with Tween-80 93 % of control and 98 % of control
